Laboratory results reported in patent US11337984B2, “Methods for treating, diagnosing and prognosing a haematological malignancy” (Institut de Recerca Contra La Leucèmia Josep Carreras, priority 2014, dated 2022).
“Also recorded” adds a separate entry of the source.

Assays:
[1] = test system: primary AML patient cells; experiment: Engraftment of ex vivo treated primary AML cells in NSG mice; design: species or system mouse; details: ex vivo 10 μM for 18 h; bone marrow 8 weeks after transplantation; versus vehicle
Experimental: FIG. 16. 5HTR antagonist treatment reduces the leukemia regeneration capacity of primary AML cells, whilst sparing healthy hematopoietic stem/progenitor cells. 1-10×10^6 primary AML patient cells or 10-14×10^4 lineage-depleted CB cells were ex vivo treated (10 μM apomorphine, 10 μM methiothepin or vehicle control) for 18 h in IMDM supplemented with 5% heat-inactivated fetal bovine serum and hematopoietic cytokines. Cells were injected IV in previously busulfan (30 mg/kg)-conditioned NSG mice and left 8 weeks untreated. Mice were sacrificed and their bones (iliac crests, femurs and tibias) were harvested and analyzed for the presence of human leukemia (upper panel) or healthy blood (lower panel) cells by flow cytometry. Four AML patient samples and three umbilical cord blood (UCB) samples were tested. *p<0.05; **p<0.01.
Leukemia-initiating cells (LIC) or LSCs are responsible for the engraftment of AML cells in xenograft mouse models and are thought to initiate and maintain the disease in humans. Primary AML patient samples were treated ex vivo with 5HTR antagonists for 18 h and transplanted into conditioned immunodeficient NSG mice. Eight weeks after transplantation, murine bone marrow was analyzed for the presence of human AML cells.

[2] = test system: HL-60, KG-1, MonoMac-1 and Kasumi-1 AML cell lines; experiment: Cell viability of AML cell lines by flow cytometry (7-AAD/Hoechst, volumetric count); format: cell-based, human
Experimental: FIG. 1. […] 10^6 HL-60, KG-1, MonoMac-1 and Kasumi-1 cells per mL in complete RPMI media were treated with 0.1, 1 and 10 μM Apomorphine for 72 h. […] Cells were stained with 7-aminoactinomycin D (7-AAD, CAS no. 7240-37-1) and Hoechst 33342 (CAS no. 23491-52-3) and analyzed by flow cytometry. […] Cell number was calculated by volumetric count. A. The mean (symbol) for each AML cell line and standard deviation (error bars) from 6 different biological replicates are represented. B. The average corresponding to the four different AML cell lines is represented. *p<0.05.
FIG. 2. […] Cell number was calculated by volumetric count. A. The mean (symbol) for each AML cell line and standard deviation (error bars) from 6 different biological replicates are represented. B. AML cell lines were treated with 10 μM Apomorphine or Methiothepin in the presence or absence of 5-CT or 5-HT. *p<0.05. Apo: apomorphine; Methio: methiothepine.
In order to test the anti-leukaemic effect of 5HTR antagonists, HL-60 (Collins, Gallo et al. Nature. 1977; 270(5635):347-9), MonoMac-1 (Steube, Teepe et al. Leuk Res. 1997; 21(4):327-35), KG-1 (Koeffler and Golde. Science. 1978; 200(4346):1153-4) and Kasumi-1 (Asou, Tashiro et al. Blood. 1991; 77(9):2031-6) AML (Acute Myeloid Leukaemia) cell lines were treated with the broad 5HTR antagonist Apomorphine (CAS no. 314-19-2) at different doses for 72 h. One million cells per mL were seeded in complete RPMI media supplemented with 10% fetal bovine serum in a 96-well plate. The concentration used for the Apomorphine treatment was 0.1, 1 and 10 μM.
The human 5HTR family is composed by 7 subtypes (from 1 to 7) of receptors […]. HL-60, KG-1, MonoMac-1 and Kasumi-1 AML cell lines were incubated with subtype-specific 5HTR antagonists: Apomorphine (type 1, 2 and 5), Methiothepin (type 1 and 2) (CAS no. 74611-28-2), Amperozide (type 2) (CAS no. 75558-90-6), GR113808 (type 4) (CAS no. 144625-51-4). 72 h after treatment, cell viability was determined by flow cytometry. Cells were stained with 7-AAD (CAS no. 7240-37-1) and Hoechst 33342 (CAS no. 23491-52-3). Viability cells were identified by 7-AAD staining exclusion and the presence of Hoechst positive stain. Cell counts were measured by volume. […] In fact, the anti-leukaemic effect was reversed in the presence of a competitive agonist such as the natural ligand 5-HT (CAS no. 153-98-0) or 5-CT (CAS no. 74885-72-6).

healthy blood cells = details: 0.1, 1 and 10 μM, 24 h or 72 h; healthy donor peripheral blood
[3] = test system: primary haematopoietic stem/progenitor cells; experiment: Viability of lineage-negative umbilical cord blood cells; details: 10 μM, 24 h
[4] = test system: primary CFU-Bs from AML patients; experiment: Secondary CFU replating of pretreated primary AML CFU-Bs; format: cell-based, human; details: primary CFUs pretreated with 10 μM, replated 14 days without drug
[5] = test system: primary AML patient samples; experiment: Myeloid differentiation markers on primary patient AML samples; format: cell-based, human; details: 0.1, 1 and 10 μM, 72 h
Experimental: FIG. 6. […] The surface expression of CD11b, CD14 and CD15 was detected by flow cytometry. […] 9 primary AML samples were analyzed in triplicates. Each symbol represents a specific AML patient.
FIG. 7. […] The surface expression of CD11b, CD14 and CD15 was detected by flow cytometry. […] 9 primary AML samples were analyzed in triplicates. Each symbol represents a specific AML patient.

AML cells = experiment: CFU assay of engrafted AML samples; format: cell-based; details: engrafted human cells from primary transplanted mice
Experimental: (§1) FIG. 17. Treatments with 5HTR antagonists reduce the leukemia regeneration capacity of primary AML samples in secondary recipient, without affecting normal hematopoiesis. Upper panel. 3-10×10^5 engrafted bone marrow cells from primary transplanted mice were injected intravenously into secondary recipients (conditioned NSG mice) and left untreated for 8 weeks. Bone marrow cells were analyzed as in FIG. 16. Frequency of human CD45 positive cells referred to control is represented. Lower panel. 50×10^3 engrafted human cells were screened for CFUs. The normalized number of CFUs obtained is represented. *p<0.05; ***p<0.005; ****p<0.0001.
(§2) In order to assay the in vivo self-renewal capacity remaining in the engrafted samples, secondary transplants were performed. Less than 35% of AML cells were detected in mice injected with apomorphine- or methiothepin-treated cells (FIG. 17).

engrafted healthy HSCs = experiment: CFU assay of engrafted healthy HSCs; format: cell-based; details: engrafted human cells from primary transplanted mice
Experimental: as §1, §2

Structure (SMILES): CN1CCc2cccc3c2[C@H]1Cc1ccc(O)c(O)c1-3 [Apomorphine, (6aR)-6-methyl-5,6,6a,7-tetrahydro-4H-dibenzo[de,g]quinoline-10,11-diol]
- homing and engraftment capacity of treated AML cells [1]: less homing and engraftment capacity
- anti-leukaemic effect in the presence of a competitive agonist (5-HT or 5-CT) ([2]; 10 μM antagonist with 5-CT or 5-HT): reversed
- cell viability of AML cell lines ([2]; 0.1, 1 and 10 μM, 72 h, HL-60, KG-1, MonoMac-1, Kasumi-1): a reduction in cell viability was detected in a dose-response fashion; also recorded: reduced AML cell viability
- cell death on AML cell lines ([2]; subtype-specific 5HTR antagonists, 0.1, 1 and 10 μM, 72 h): induced cell death
- healthy blood cell viability (healthy blood cells): remains unaffected
- viability of healthy haematopoietic stem/progenitor cells [3]: remain unaffected
- clonogenic capacity in secondary CFUs [4]: a reduction in the clonogenic capacity was observed
- myeloid markers (CD11b, CD14, CD15) on primary AML patient samples [5]: induced the upregulation of myeloid markers; also recorded: induced myeloid differentiation
- clonogenic capacity of engrafted AML samples (CFU assays) (AML cells): significantly reduced
- clonogenic capacity of engrafted healthy HSCs (CFU assays) (engrafted healthy HSCs): little effect
